Data as given in patent US5026882A, “Phosphinic acid substituted steroids as inhibitors of steroid 5α-reductase” (priority 1988, dated 1991).
Read-outs that look alike come from different tables or passages of the source.

Legend:
steroid 5α-reductase = conditions: cited from earlier work; for Reversible / Irreversible inhibition: Table 1, in words beside Ki; for Ki: Table 1, literature references
[1] = target: T1, Human Prostatic Steroid 5α-Reductase (Homo sapiens, UniProt P31213); assay: Inhibition of human steroid 5α-reductase using tissue from hyperplastic human prostates ([14C]-testosterone conversion, Dixon analysis); assay type: biochemical
T1 construct: Prostatic particles were obtained by differential centrifugation; from tissue; host or cells: frozen human prostates (hyperplastic), 140,000 × g particulate fraction
T1 sequence (P31213 1-254): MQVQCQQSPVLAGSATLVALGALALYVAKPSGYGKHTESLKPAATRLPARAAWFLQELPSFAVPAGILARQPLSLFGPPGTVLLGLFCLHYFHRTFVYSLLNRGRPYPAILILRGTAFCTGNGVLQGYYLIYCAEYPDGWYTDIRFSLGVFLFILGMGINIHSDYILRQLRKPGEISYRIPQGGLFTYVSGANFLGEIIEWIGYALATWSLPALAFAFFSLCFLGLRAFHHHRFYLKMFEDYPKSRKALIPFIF
Method: Such diseases and conditions include acne vulgaris, seborrhea, female hirsutism, prostate diseases such as benign prostatic hypertrophy, and male pattern baldness. several compounds of the invention were tested for potency in inhibiting human steroid 5α-reductase using tissue from hyperplastic human prostates. In determining potency in inhibiting the human enzyme, the following procedure was employed:
Frozen human prostates were thawed and minced into small pieces (5 mm^3). The tissue was homogenized in 3 to 5 volumes of 20 mM potassium phosphate, pH 6.5, buffer containing 0.33 M sucrose, 1 mM dithiothreitol, and 50 μM NADPH with a Brinkmann Polytron (Sybron Corporation, Westbury, N.Y.). The solution was subjected to sonication for 3 to 5 minutes with a Sonifier (Branson Sonic Power Co.) followed by hand homogenization in a glass-to-glass Dounce homogenizer (Kontes Glass Company, Vineland, N.J.).
Prostatic particles were obtained by differential centrifugation at 600 to 1000 × g for 20 minutes and 140,000 × g for 60 minutes at 4° C. The pellet obtained from the 140,000 × g centrifugation was washed with 5 to 10 tissue volumes of the buffer described above and recentrifuged at 140,000 × g. The resulting pellet was suspended in 20 mM potassium phosphate buffer, pH 6 5, containing 20% glycerol, 1 mM dithiothreitol, and 50 μM NADPH. The suspended particulate solution was stored at -80° C.
A constant amount of [^14 C]-testosterone (52 to 55 mCi/mmol, New England Nuclear, Boston, Mass.) in ethanol and varying amounts of the potential inhibitor in ethanol were deposited in test tubes and concentrated to dryness in a SAVANT Speed Vac. To each tube was added buffer, 20 μl of 10 mM NADPH and an aliquot of prostatic particulate solution to a final volume of 1.0 ml of 50 mM sodium citrate, pH 5.0. After incubating the solution at 37° C. for 20 to 30 minutes the reaction was quenched by the addition of 4 ml ethyl acetate and 0.25 μmol each of testosterone, dihydrotestosterone, androst-aneidiol, and androst-anedione as carriers. The organic layer was removed to a second test tube and evaporated to dryness in a Speed Vac. The residue was dissolved in 20 to 30 μl chloroform, spotted on an individual lane of a 20×20 cm prechannelled silica gel TLC plate (Si 250F-PA, Baker Chemical) and developed twice with acetone:chloroform (1:9). The radiochemical content in the bands of the substrate and the products was determined with a BIOSCAN Imaging Scanner (Bioscan, Inc., Washington, D.C.). The percent of recovered radiolabel converted to product was calculated, from which enzyme activity was determined. All incubations were conducted such that no more than 12% of the substrate (testosterone) was consumed.
The experimentally obtained data was computer fitted to a linear function by plotting the reciprocal of the enzyme activity (1/velocity) against the variable inhibitor concentration (Dixon, M. (1953), Biochem. J., 55, 170). Assuming that the steroidal inhibitor is a competitive inhibitor against testosterone, a value for the inhibition constant (Ki) can be calculated from equation 1:
Ki =(B/A)/(S/Km +1) Equation 1

[2] = system: human steroid 5α-reductase; conditions: read-out: Km (Michaelis-Menton constant of the substrate); testosterone as substrate
Excerpt: where B is the intercept on the 1/velocity axis, A is the slope of the line, S is the concentration of substrate (testosterone) used in the experiment, and Km is the Michaelis-Menton constant of the substrate (testosterone)

[3] = human prostatic particulate, pH 5.0, 37° C., 20 to 30 minutes, competitive inhibition against testosterone assumed, read-out: Ki , app

In the case of C[C@]12CC[C@H]3[C@@H](CCC4=CC(=O)CC[C@@]43C)[C@@H]1CC[C@@H]2C(=O)O, the “Reversible / Irreversible inhibition” value (steroid 5α-reductase) is given as “Reversible” and the Ki (steroid 5α-reductase) is given as 1.1 µM.
In the case of CC(=O)[C@H]1CC[C@H]2[C@@H]3CC=C=CC(=O)CCC(=O)[C@H]3CC[C@]12C, the “Reversible / Irreversible inhibition” value (steroid 5α-reductase) is given as “Irreversible” and the Ki (steroid 5α-reductase) is given as 1 µM.
In the case of CC(CO)[C@H]1CC[C@H]2[C@@H]3CC[C@H]4C(=[N+]=[N-])C(=O)CC[C@]4(C)[C@H]3CC[C@]12C (some centres unmarked), the “Reversible / Irreversible inhibition” value (steroid 5α-reductase) is listed as “Irreversible”, the Ki (steroid 5α-reductase) is listed as 0.0035 µM and the “time dependence of inhibition (in words)” value (steroid 5α-reductase; literature) is listed as “potent, time-dependent inhibitor”.
With CC(C)N(C(=O)[C@H]1CC[C@H]2[C@@H]3CC=C4C=C([PH](=O)O)CC[C@]4(C)[C@H]3CC[C@]12C)C(C)C [Example 1, 17β-N,N-Diisopropylcarboxamido-androst-3,5-diene-3-phosphinic acid] the Ki [1, 3] was 0.007 µM.
Compound CC(C)(C)NC(=O)[C@H]1CC[C@H]2[C@@H]3CC=C4C=C([PH](=O)O)CC[C@]4(C)[C@H]3CC[C@]12C [Example 2, 17β-N-t-Butylcarboxamide-androst-3,5-diene-3-phosphinic acid] has a Ki [1, 3] of 0.035 µM.
Work on CC(C)N(C(=O)[C@H]1CC[C@H]2[C@@H]3CC[C@H]4CC([PH](=O)O)=CC[C@]4(C)[C@H]3CC[C@]12C)C(C)C [Example 3, 17β-N,N-Diisopropylcarboxamide-5α-androst-2-ene-3-phosphinic Acid] yielded a Ki [1] of 0.015 µM.
Compound CC(C)N(C(=O)[C@H]1CC[C@H]2[C@@H]3CC[C@H]4C=C([PH](=O)O)CC[C@]4(C)[C@H]3CC[C@]12C)C(C)C [Example 5, 17β-N,N-Diisopropylcarboxamido-5α-androst-3-ene-3-phosphinic acid] has a Ki [1, 3] of 0.025 µM.
In the case of CC(C)N(C(=O)[C@H]1CC[C@H]2[C@@H]3CCC4=CC([PH](=O)O)=CC[C@]4(C)[C@H]3CC[C@]12C)C(C)C [Example 7, 7β-N,N-Diisopropylcarboxamido-androst-2,4-diene-3-phosphinic acid], the Ki [1] is reported as 0.02 µM.
With CC(C)N(C(=O)[C@H]1CC[C@H]2[C@@H]3CC=C4C=C(P(C)(=O)O)CC[C@]4(C)[C@H]3CC[C@]12C)C(C)C [Example 9, 17β-N,N-diisopropylcarboxamido-androst-3,5-diene-3-methylphosphinic acid] the Ki [1, 3] was 0.055 µM.
Work on C[C@]12CC[C@H]3[C@@H](CCC4=CC(=O)CC[C@@]43C)[C@@H]1CC[C@@H]2O [testosterone] yielded a Km [2] of 4.5 µM.
